Source: patent publication US20230181482A1, “LIPIDS FOR DELIVERY OF NUCLEIC ACID SEGMENTS” (AstraZeneca AB, priority 2021, published 2023)

Tests used:
[1] = mRNA encapsulation efficiency of LNP formulations (Quant-it Ribogreen assay with Triton-X100); assay type: physicochemical; settings: DMPE-PEG2000
In short: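 LNPs of ionizable lipid/cholesterol/DSPC/polymer-lipid (50/38.5/10/1.5 mol%, 12.5 mM total lipid) formed by microfluidic mixing with eGFP mRNA in 50 mM citrate, pH 3, at 3:1 aqueous:ethanol and N/P 3:1 or 6:1. Encapsulation efficiency measured by RiboGreen with and without Triton-X100 disruption.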

[2] = tested on: human broncho-epithelial cell line 16HBE; assay: In vitro expression of eGFP in 16HBE cells (GFP ELISA); assay type: cell-based; settings: for eGFP in 16HBE: LNP formulation nos. 1 and 7 (N/P 3:1), 24 h, 125 ng mRNA per well, (standard error of the mean); for Ratio Lipid/MC3: ratio of eGFP expression in 16HBE to the MC3 formulation
Experimental: In vitro expression of EGFP protein from LNP formulation nos. 1 and 7 described in Example 58 was tested in the human broncho-epithelial cell line 16HBE (Sigma-Aldrich SCC150. 16HBE cells were maintained in DMEM, low glucose with GlutaMAX™+pyruvate (Gibco 21885-025) supplemented with MEM Non-Essential Amino Acids (Gibco 11140035) and 10% Heat-Inactivated Fetal Calf Serum (HI-FCS). The cells were cultured at 37° C. in a humidified atmosphere with 5% CO2. The day prior to an experiment, cells were detached from culture flasks using TrypLE™ (Gibco 12604013) and seeded in cell culture treated 96-well plates (Greiner Bio-One #655090) at a density of 20.000 cells per well. At the day of an experiment, 1 hour before incubation with LNPs, medium was removed and replaced with 95 ul DMEM including 1% HI-FCS. After 1 hour of conditioning, 5 ul of LNPs in PBS was added and mixed by a Bravo robot, resulting in a final concentration of 50-125 ng mRNA per well. Cells were then incubated for 24 h at 37° C. in a humidified atmosphere with 5% CO2. Absolute quantification of EGFP protein was done using ELISA (GFP SimpleStep ELISA kit, Abcam #ab171581). After 24 h of incubation, cells were lysed by adding 100 ul of lysis buffer to each well (Lysis buffer included in the kit, or Abcam products #ab193970 and #ab193971) Cells were then lysed by a freeze-thaw cycle in lysis buffer. Lysates were measured in appropriate dilutions according to the kit manufacturer's instructions. Results are reported as number of EGFP molecules expressed per mRNA dosed, after 24 h, calculated from the values of 125 ng mRNA per well. Results are plotted as Mean+SEM from triplicate values.
The expression of eGFP in 16HBE cytosol proves the function of the used LNP composition of eGFP mRNA in promoting gene transfection and […]. The quantification of eGFP allows to compare different LNP compositions with the MC3-based lipid composition, used as a comparator, with regard to the induction of protein expression in 16HBE to obtain the ratio of lipid to MC3. In this application, the LNP compositions differ in their ionizable lipid (IL) component. […] (see FIG. 1).

[3] = LNP particle size by dynamic light scattering (Zetasizer Nano ZS); assay type: physicochemical; settings: DMPE-PEG2000
In short: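 eGFP mRNA in 50 mM citrate (from pH 3 buffer) was mixed microfluidically (Aq:EtOH 3:1, 12 mL/min) with ethanolic lipids, ionizable lipid/cholesterol/DSPC/polymer-conjugated lipid 50/38.5/10/1.5 mol %, 12.5 mM total, at N/P 3:1 or 6:1. Dynamic light scattering gave z-average diameter. Number-weighted distributions used refractive index 1.45.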

[4] = tested on: Female BALB/c mice; assay: eGFP expression in the liver at 24 hours after intravenous administration of LNP formulations to mouse (ELISA); assay type: in vivo; settings: LNP N/P 3:1, DMPE-PEG2000
In short: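 Mice (6-8 weeks, n=4/group) received a slow IV tail-vein bolus of LNP formulation at 0.3 mg/kg. Livers were harvested 24 hours post-dose and eGFP quantified by ELISA.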

[5] = Table 1, LNP with eGFP mRNA, N/P ratio 3:1
[6] = Table 1, number-average particle diameter, N/P ratio 3:1
[7] = Table 1, z-average particle diameter, N/P ratio 3:1

Structure (SMILES) | % EE [1, 5] | eGFP in 16HBE [2] | Ratio Lipid/MC3 [2] | <d>N (nm) [3, 6] | <d>Z (nm) [3, 7] | % EE ([1]; Table 6, N/P ratio 3:1) | Liver eGFP protein (ng/g tissue) ([4]; Table 6, 0.3 mg/kg) | <d>N (nm) ([3]; Table 6, N/P ratio 3:1) | <d>Z (nm) ([3]; Table 6, N/P ratio 3:1) | also measured
CCCCCC(CCCCC)CCOC(=O)CCCCCCCC(CCCCCCCC(=O)OCCC(CCCCC)CCCCC)NC1CC2(COC2)C1 [Compound 1, Bis(3-pentyloctyl) 9-((2-oxaspiro[3.3]heptan-6-yl)amino)heptadecanedioate] | 97% | 0.044 (±0.004) number of protein molecules per number of dosed mRNA molecules | 1.9 | 68 nm | 84 nm | – | – | – | – | % EE ([1]; Table 1, LNP with eGFP mRNA, N/P ratio 6:1): 94%; <d>N (nm) ([3]; Table 1, number-average particle diameter, N/P ratio 6:1): 57 nm; <d>Z (nm) ([3]; Table 1, z-average particle diameter, N/P ratio 6:1): 74 nm
CCCCCCCCC(CCCCCCCC)OC(=O)CCCCCCCC(CCCCCCCC(=O)OC(C)(C)CCCCCCCC)NC1CC2(COC2)C1 (stereo not drawn) [Compound 53, 1-(heptadecan-9-yl) 17-(2-methyldecan-2-yl) 9-((2-oxaspiro[3.3]heptan-6-yl)amino)heptadecanedioate] | – | – | – | – | – | 96% | 6947.2 ng/g tissue | 50 nm | 65 nm | –
CCCCCCCCCC(=O)OCCCCCCCC(CCCCCCCC(=O)OC(CCCCCCCC)CCCCCCCC)NC1CC2(COC2)C1 (stereo not drawn) [Compound 54, Heptadecan-9-yl 9-((2-oxaspiro[3.3]heptan-6-yl)amino)-16-(decanoyloxy)hexadecanoate] | – | – | – | – | – | 95% | 10704.5 ng/g tissue | 62 nm | 81 nm | –
CCCCCCCCC(CCCCCCCC)OC(=O)CCCCCCCC(CCCCCCCCCC(=O)OC(C)CCCCCC)NC1CC2(COC2)C1 (stereo not drawn) [Compound 55, 1-(heptadecan-9-yl) 19-(octan-2-yl) 9-((2-oxaspiro[3.3]heptan-6-yl)amino)nonadecanedioate] | – | – | – | – | – | 93% | 18695.5 ng/g tissue | 62 nm | 77 nm | –
CCCCCCCCCCC(C)OC(=O)CCCCCC(CCCCCCCC(=O)OC(CCCCCCCC)CCCCCCCC)NC1CC2(COC2)C1 (stereo not drawn) [Compound 56, 1-(dodecan-2-yl) 15-(heptadecan-9-yl) 7-((2-oxaspiro[3.3]heptan-6-yl)amino)pentadecanedioate] | – | – | – | – | – | 96% | 10270.4 ng/g tissue | 58 nm | 73 nm | –
CCCCC/C=C\C/C=C\CCCCCCCCC(CCCCCCCC/C=C\C/C=C\CCCCC)OC(=O)CCCN(C)C [MC3, [(10Z,13Z)-1-[(9Z,12Z)-octadeca-9,12-dienyl]nonadeca-10,13-dienyl] 4-(dimethylamino)butanoate, reference compound] | 99% | 0.023 (±0.001) number of protein molecules per number of dosed mRNA molecules | 1 | 72 nm | 86 nm | 98% | 3802.0 ng/g tissue | 61 nm | 74 nm | % EE ([1]; Table 3, N/P ratio 3:1): 98%; % EE ([1]; Table 4, N/P ratio 3:1): 98%; % EE ([1]; Table 5, N/P ratio 3:1): 98%; Liver eGFP protein (ng/g tissue) ([4]; Table 3, 0.3 mg/kg): 3091.5 ng/g tissue; Liver eGFP protein (ng/g tissue) ([4]; Table 4, 0.3 mg/kg): 916.4 ng/g tissue; Liver eGFP protein (ng/g tissue) ([4]; Table 5, 0.3 mg/kg): 1114.4 ng/g tissue; <d>N (nm) ([3]; Table 3, N/P ratio 3:1): 63 nm; <d>Z (nm) ([3]; Table 3, N/P ratio 3:1): 79 nm; <d>N (nm) ([3]; Table 4, N/P ratio 3:1): 71 nm; <d>Z (nm) ([3]; Table 4, N/P ratio 3:1): 88 nm; <d>N (nm) ([3]; Table 5, N/P ratio 3:1): 66 nm; <d>Z (nm) ([3]; Table 5, N/P ratio 3:1): 82 nm
